In PubChem BioAssay AID720512 (Broad Institute, 2013):
Active and inactive are the calls of the source. The rule behind the calls is not given here.

Target: Toxin B (TcdB) glycohydrolase, Clostridioides difficile 630
Test: TcdB glycohydrolase inhibitors, dose response, biochemical, cherry-pick, plate reader (AID 720512)
Settings: recombinant TcdB glycohydrolase activity

Structure (SMILES) | AC50
CC(=O)N1CC[C@@H]2[C@@H](CO)N(C)c3ccc(-c4ccccc4)cc3[C@@H]21 | > 42 µM (inactive)
CC(=O)N(C)C[C@@H]1Oc2cc(/C=C/c3ccccc3)ccc2S(=O)(=O)N([C@H](C)CO)C[C@@H]1C | > 39 µM (inactive)
CC(=O)Oc1ccc(/C=N/NC(=O)CCSc2ccccc2)cc1 | > 39 µM (inactive)
Oc1ccc(/C=N/N2CCN(c3ccccn3)CC2)cc1 | > 39 µM (inactive)
CC(C)NC(=O)N1CC[C@@H]2[C@@H](CO)N(C)c3ccc(-c4ccc(F)cc4)cc3[C@@H]21 | > 42 µM (inactive)
Cc1ccc(C(=O)Nc2scc(-c3ccccc3)c2C(=O)O)cc1 | > 39 µM (inactive)
CN1c2ccc(-c3ccccc3)cc2[C@H]2[C@H](CCN2C(=O)CN2CCOCC2)[C@H]1CO | > 39 µM (inactive)
CCNC(=O)C[C@H]1CC[C@@H]2[C@H](COc3ccc(NC(=O)c4ccc5c(c4)OCO5)cc3C(=O)N2C)O1 | > 42 µM (inactive)

Same assay, conditions: recombinant TcdB glycohydrolase activity, at 19.5 µM (top of the series)

Structure (SMILES) | activity change, negative = inhibition
CNC(C(=O)c1ccccc1)C(OC)c1cccc([N+](=O)[O-])c1 (centres undefined) | inactive
CC(=O)Nc1ccc(NC(=O)Cc2ccc(S(=O)(=O)N3CCCCC3)cc2)cc1 | inactive
COc1ccc(/C=N/N=C2/NC(=O)C(CC(=O)NC(N)=O)S2)cc1 (centres undefined) | inactive
Cc1nc(-c2ccccn2)nc(SCC(=O)c2ccc(F)cc2)c1Cl | inactive
CNC(=O)C1CCN(S(=O)(=O)c2c(C)noc2/C=C/c2ccc(C)cc2)CC1 | inactive
Cc1nn2cc(-c3cccc(Cl)c3)cnc2c1Br | inactive
O=C(C[C@@H]1CC[C@H]2[C@@H](COC[C@H](O)CN2C(=O)c2ccccn2)O1)NC1CCC1 | inactive
COc1ccc(Cl)cc1-n1c(=S)sc2c(=O)n(-c3ccc(F)cc3)c(SCC(=O)O)nc21 | inactive
O=C(N/N=C/c1ccccn1)c1ccc([N+](=O)[O-])cc1Cl | inactive
COC(=O)C(Cc1ccccc1)NC(=O)CSc1nc(C)cc(=O)[nH]1 (centres undefined) | inactive
O=C(Nc1sc2c(c1C(=O)O)CCCC2)c1ccc(Cl)cc1 | inactive
Cc1ccc(S(=O)(=O)N2CCC(C(=O)OCC(=O)NCCc3ccccc3)CC2)cc1C | inactive
O=C(NCc1ccncc1)[C@@H]1CCCN1C(=O)[C@@H]1CCCN1 | inactive
O=S(=O)(c1ccccc1)N1CCN(Cc2nnc(-c3ccccc3)o2)CC1 | inactive
CCNC(=O)C[C@H]1CC[C@@H]2[C@@H](COc3ccc(NC(C)=O)cc3C(=O)N2C)O1 | inactive
CN(C(=O)COC(=O)CNC(=O)c1ccccc1Cl)c1ccccc1 | inactive
CC(=O)Nc1ccc(Oc2nc(-c3ccccn3)nc3ccccc23)cc1 | inactive
COc1ccc(CNC(=O)C2=CC(c3ccc(OC)c(OC)c3)=NS(=O)(=O)N2C)cc1 | inactive
Cc1ccc(CN2C(=O)CN=C(c3ccccc3)c3ccccc32)cc1 | inactive

Structure (SMILES) | activity change, negative = inhibition
CCCCNS(=O)(=O)c1ccc(OCC(=O)OC)cc1 | inactive
O=C(O)C1CCC(CN(Cc2cccc(Br)c2)C(=S)Nc2ccccc2F)CC1 (centres undefined) | inactive
N#CCCN(C(=O)COC(=O)c1cc(=O)c2ccccc2o1)c1ccccc1 | inactive
Cc1ccc(CNC(=O)Nc2cccc(C)c2)cc1 | inactive
CCOc1ccccc1/C=C/c1onc(C)c1S(=O)(=O)N1CCC(C(=O)NC(C)C)CC1 | inactive
NNC(=O)CCc1nc2ccc(O)cc2[nH]1 | inactive
CN1C(=O)CSc2ccc(NC(=O)N3CCc4ccccc43)cc21 | inactive
Nc1nc(CCOc2ccc(F)cc2)cs1 | inactive
CNC(=O)C[C@@H]1CC[C@@H]2[C@H](COc3ccc(NS(=O)(=O)c4ccccc4C)cc3C(=O)N2C)O1 | inactive
COc1ccc(-c2nc3ccc([N+](=O)[O-])cc3[nH]2)cc1 | inactive
Cc1ccc(NC(=O)OC(C)N2CCCCC2)cc1NC(=O)OC(C)N1CCCCC1 (centres undefined) | inactive
CC(C)Sc1nnc(NC(=O)c2ccco2)s1 | inactive
CC(C)(C)N1C(=O)c2ccc(C(=O)Nc3ccc(O)cc3)cc2C1=O | inactive
CN(C)c1ccc(C(=O)OCC#CCSc2nnc(-c3cccc4ccccc34)o2)cc1 | inactive
Nc1ccccc1-c1nc2ccncc2[nH]1 | inactive
CCc1ccc(NC(=O)C2=CC(c3ccc(OC)cc3)=NS(=O)(=O)N2C)cc1 | inactive
CCOC(=O)c1ccc(-n2c(CCC(=O)O)ccc2-c2ccc(F)cc2)cc1 | inactive
C[C@@H]1CN([C@@H](C)CO)S(=O)(=O)c2ccc(C#Cc3ccncc3)cc2O[C@H]1CN(C)C(=O)C1CC1 | inactive
CC(C)Cc1nnc(NC(=O)CCC(=O)NCc2ccccc2Cl)s1 | inactive

Structure (SMILES) | activity change, negative = inhibition
O=c1[nH][nH]c(=O)c2c1[nH]c(=S)n2Cc1ccccc1 | inactive
COC(=O)C(C(=O)OC)C(CC(=O)c1ccc(Br)cc1)c1ccccc1 (centres undefined) | inactive
CN(CCN1CCOCC1)C(=O)CC1C(=O)NCCN1Cc1ccccc1C(F)(F)F (centres undefined) | inactive
COc1ccc(C(=O)Nc2ccc3c(c2)C(=O)N(C)[C@@H]2CC[C@H](CC(=O)NCC4CC4)O[C@H]2CO3)cc1 | inactive
Cc1ccc(C(=O)Nc2ncc([N+](=O)[O-])s2)cc1 | inactive
COc1ccc(/C=C2\CCCCC2=O)cc1 | inactive
Cc1cccc(/C=C/c2onc(C)c2S(=O)(=O)N2CCC(C(=O)N3CCCCC3)CC2)c1 | inactive
CC[C@H](C)[C@H]1CNC(=S)N1CC1CCN(CCCC2CCCC2)CC1 | inactive
O=C(Nc1ccc(N2CCOCC2)c(Cl)c1)c1ccc(F)cc1 | inactive
COc1ccc(NC(=O)Nc2nc(C)cc(C)n2)c(OC)c1 | inactive
COc1ccc(C2=NS(=O)(=O)N(C)C(C(=O)NCc3ccc4c(c3)OCO4)=C2)cc1 | inactive
CN(C(=O)Cn1c(=O)oc2cc(S(=O)(=O)N3CCCC3)ccc21)C1CCCCC1 | inactive
Cc1cc(SCC(=O)N/N=C/c2ccco2)nc2ccccc12 | inactive
COc1cc(/C=C(/NC(=O)c2ccccc2)C(=O)Nc2ccc(O)cc2)c([N+](=O)[O-])cc1OC | inactive
CCOC(=O)/C=c1/s/c(=C/c2ccc3cc(OC)ccc3c2)c(=O)n1CC(=O)NCC1CCCO1 (centres undefined) | inactive
CCOc1cc(/C=N/O)ccc1OCc1ccc(C)cc1 | inactive
O=C(CSc1nc2ccccc2[nH]1)NC1CCCc2ccccc21 (centres undefined) | inactive
CC(=O)Nc1cccc(NC(=O)c2ccc(Br)cc2)c1 | inactive
